In ChEMBL document CHEMBL2074180, “Human P-glycoprotein transports cyclosporin A and FK506” (J Biol Chem, 1993):

Target: ATP-dependent translocase ABCB1 (Homo sapiens, UniProt P08183)
Assay: TP_TRANSPORTER: transepithelial transport of tacrolimus (basal to apical) (Tacrolimus: 6.2 uM) in MDR1-expressing LLC-PK1 cells
Format: functional, cell-based
Settings: pig, llc-pk1, 6.2 µM

Sequence of ATP-dependent translocase ABCB1 (P08183 whole entry): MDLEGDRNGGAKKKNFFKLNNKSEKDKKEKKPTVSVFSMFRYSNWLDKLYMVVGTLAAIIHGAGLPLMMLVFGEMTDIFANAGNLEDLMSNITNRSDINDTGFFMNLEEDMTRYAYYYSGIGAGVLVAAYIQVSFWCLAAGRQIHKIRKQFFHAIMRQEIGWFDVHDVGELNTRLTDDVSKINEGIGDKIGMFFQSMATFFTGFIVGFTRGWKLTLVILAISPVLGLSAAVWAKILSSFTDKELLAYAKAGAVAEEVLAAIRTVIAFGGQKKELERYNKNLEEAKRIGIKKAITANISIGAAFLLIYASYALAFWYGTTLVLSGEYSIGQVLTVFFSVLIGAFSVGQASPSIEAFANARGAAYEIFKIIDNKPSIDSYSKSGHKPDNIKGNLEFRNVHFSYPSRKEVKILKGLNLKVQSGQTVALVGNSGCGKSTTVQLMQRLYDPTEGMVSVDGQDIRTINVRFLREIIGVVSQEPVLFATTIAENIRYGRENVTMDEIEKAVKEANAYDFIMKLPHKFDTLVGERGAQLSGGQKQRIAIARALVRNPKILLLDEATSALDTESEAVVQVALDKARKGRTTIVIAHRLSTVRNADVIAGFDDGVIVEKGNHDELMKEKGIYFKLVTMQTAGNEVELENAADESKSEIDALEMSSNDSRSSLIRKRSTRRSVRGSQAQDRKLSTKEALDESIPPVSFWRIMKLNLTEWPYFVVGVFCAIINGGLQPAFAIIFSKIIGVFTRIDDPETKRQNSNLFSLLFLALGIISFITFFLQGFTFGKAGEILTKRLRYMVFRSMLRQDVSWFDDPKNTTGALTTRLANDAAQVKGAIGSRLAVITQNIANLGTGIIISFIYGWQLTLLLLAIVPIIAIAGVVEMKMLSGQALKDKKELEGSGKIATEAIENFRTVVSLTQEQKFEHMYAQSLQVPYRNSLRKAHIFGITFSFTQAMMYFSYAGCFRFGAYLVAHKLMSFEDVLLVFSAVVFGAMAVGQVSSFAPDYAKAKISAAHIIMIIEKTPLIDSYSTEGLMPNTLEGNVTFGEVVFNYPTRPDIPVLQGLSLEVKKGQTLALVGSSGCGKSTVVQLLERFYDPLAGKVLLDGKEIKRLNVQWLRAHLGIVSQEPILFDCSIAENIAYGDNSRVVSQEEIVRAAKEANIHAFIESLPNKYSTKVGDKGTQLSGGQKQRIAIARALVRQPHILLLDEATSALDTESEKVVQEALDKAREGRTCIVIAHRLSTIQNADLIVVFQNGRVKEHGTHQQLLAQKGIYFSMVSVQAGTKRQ

Activity: inhibitor [+]
SMILES: C=CC[C@@H]1/C=C(\C)C[C@H](C)C[C@H](OC)[C@H]2O[C@@](O)(C(=O)C(=O)N3CCCC[C@H]3C(=O)O[C@H](/C(C)=C/[C@@H]3CC[C@@H](O)[C@H](OC)C3)[C@H](C)[C@@H](O)CC1=O)[C@H](C)C[C@@H]2OC [TACROLIMUS ANHYDROUS]
